Data taken from patent publication US20250002475A1 (EPICS THERAPEUTICS, priority 2023, published 2025).

How the values were obtained:
[1] = biological target: T1, recombinant METTL3/METTL14 complex (Homo sapiens, UniProt Q86U44); assay: METTL3/14 Scintillation Proximity Assay (SPA), RNA methyltransferase activity; assay type: biochemical; conditions: 5.31 nM METTL3/14 complex, 250 nM RNA substrate, 1 μM 3H-SAM, 90 min; for compounds marked * best of the two separated forms
T1 construct: purchased Active Motif 311970; host or cells: Sf9 cells
T1 sequence (Q86U44 whole entry): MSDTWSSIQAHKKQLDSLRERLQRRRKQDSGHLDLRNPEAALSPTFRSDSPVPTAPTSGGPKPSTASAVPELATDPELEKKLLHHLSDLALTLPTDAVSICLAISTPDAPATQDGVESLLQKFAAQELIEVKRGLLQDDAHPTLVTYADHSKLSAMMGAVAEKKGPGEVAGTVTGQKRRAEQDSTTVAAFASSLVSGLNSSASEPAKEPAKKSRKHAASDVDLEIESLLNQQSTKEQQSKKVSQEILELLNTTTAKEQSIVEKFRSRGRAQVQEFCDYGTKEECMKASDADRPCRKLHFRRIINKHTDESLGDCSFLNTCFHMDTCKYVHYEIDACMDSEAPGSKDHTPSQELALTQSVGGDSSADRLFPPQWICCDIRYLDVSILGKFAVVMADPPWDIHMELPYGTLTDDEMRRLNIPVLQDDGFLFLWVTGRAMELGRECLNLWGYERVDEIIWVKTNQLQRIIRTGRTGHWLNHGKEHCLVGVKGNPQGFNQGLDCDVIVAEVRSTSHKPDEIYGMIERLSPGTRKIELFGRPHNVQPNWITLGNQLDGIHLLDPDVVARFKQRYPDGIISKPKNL
T1 sequence (Q9HCE5 whole entry partner): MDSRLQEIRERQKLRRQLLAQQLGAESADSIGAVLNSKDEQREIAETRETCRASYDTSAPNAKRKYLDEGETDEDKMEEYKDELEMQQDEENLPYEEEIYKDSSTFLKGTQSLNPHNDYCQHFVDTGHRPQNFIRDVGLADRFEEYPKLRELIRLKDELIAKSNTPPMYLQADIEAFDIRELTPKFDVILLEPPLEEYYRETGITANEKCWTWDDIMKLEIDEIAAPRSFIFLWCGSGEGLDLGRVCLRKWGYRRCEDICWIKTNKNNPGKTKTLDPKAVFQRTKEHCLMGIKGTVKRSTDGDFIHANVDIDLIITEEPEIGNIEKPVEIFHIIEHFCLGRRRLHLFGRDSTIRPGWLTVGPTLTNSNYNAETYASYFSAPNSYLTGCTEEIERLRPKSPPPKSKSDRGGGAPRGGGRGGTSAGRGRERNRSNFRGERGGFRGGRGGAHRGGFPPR

[2] = system: Caov-3 cells; assay: Caov-3 cellular viability assay (ATP-Lite, 72 h); assay type: cell-based; conditions: Homo sapiens, ATP-Lite luminescence, % viability relative to DMSO
Procedure, shortened: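 10000 cells/well treated 72 h at 37 °C, 5% CO2, in RPMI-1640 with 10% FBS and 0.1% DMSO final. Viability by ATP-Lite One Step luminescence. Expressed as % of DMSO control, with IC50 from each compound's concentration-response curve.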

[3] = system: Kasumi-1 cells; assay: Kasumi-1 cellular viability assay (ATP-Lite, 72 h); assay type: cell-based; conditions: Homo sapiens, ATP-Lite luminescence, % viability relative to DMSO
Procedure, shortened: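 Kasumi-1 AML cells, 15000/well in RPMI-1640 with 10% FBS, were exposed to compound titrations (0.1% final DMSO) for 72 h at 37 °C, 5% CO2. ATP-Lite One Step luminescence gave % viability versus DMSO control, and IC50 came from the concentration-response.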

| Structure (SMILES) | IC50 [1] [nM] | IC50 [2] [nM] | IC50 [3] [nM] |
| --- | --- | --- | --- |
| CC(n1cc(-c2cncc(N3CCCCC3)c2)nn1)n1ccc(N2CCC[C@@H](NCC3CCC3)C2)cc1=O (single isomer, unassigned) [Compound 178] | ≤ 50 | ≤ 500 | ≤ 500 |
| c1cc(Cc2nnc(-c3cncc(N4CCCC4)n3)s2)ncc1N1CCC[C@@H](NCC2CC2)C1 [Compound 361, (R)-N-(cyclopropylmethyl)-1-(6-((5-(6-(pyrrolidin-1-yl)pyrazin-2-yl)-1,3,4-thiadiazol-2-yl)methyl)pyridin-3-yl)piperidin-3-amine] | ≤ 50 | ≤ 500 | ≤ 500 |
| c1ncc(C2CCCC2)cc1-c1cn(C2(c3ccc(N4CCC[C@@H](NCC5CC5)C4)cn3)COC2)nn1 [Compound 313, (R)-1-(6-(3-(4-(5-cyclopentylpyridin-3-yl)-1H-1,2,3-triazol-1-yl)oxetan-3-yl)pyridin-3-yl)-N-(cyclopropylmethyl)piperidin-3-amine] | ≤ 50 | ≤ 500 | ≤ 500 |
| O=C(Nc1cncc(N2CCCC2)n1)C1(c2ccc(N3CCC[C@@H](NCC4CCC4)C3)cc2)COC1 [Compound 281, (R)-3-(4-(3-((cyclobutylmethyl)amino)piperidin-1-yl)phenyl)-N-(6-(pyrrolidin-1-yl)pyrazin-2-yl)oxetane-3-carboxamide] | ≤ 50 | ≤ 500 | ≤ 500 |
| CN(C)c1cncc(-c2cn(Cn3ccc(N4CCC[C@@H](NCC5CC5)C4)cc3=O)nn2)c1 [Compound 174, (R)-4-(3-((cyclopropylmethyl)amino)piperidin-1-yl)-1-((4-(5-(dimethylamino)pyridin-3-yl)-1H-1,2,3-triazol-1-yl)methyl)pyridin-2(1H)-one] | ≤ 50 | ≤ 500 | ≤ 500 |
| CC(c1ccc(N2CCC[C@@H](NCC3CC3)C2)nn1)c1nnc(-c2cncc(C3CC3)c2)s1 (stereo partly drawn) [Compound 358, (3R)—N-(cyclopropylmethyl)-1-(6-(1-(5-(5-cyclopropylpyridin-3-yl)-1,3,4-thiadiazol-2-yl)ethyl)pyridazin-3-yl)piperidin-3-amine] | ≤ 50 | ≤ 500 | 500 to 5000 |
| CCOc1cncc(-c2cn(C(C)c3ccc(N4CCC[C@@H](NCC5CCC5)C4)nn3)nn2)c1 (single isomer, unassigned) [Compound 187] | ≤ 50 | ≤ 500 | 500 to 5000 |
| CC(n1cc(-c2cncc(N3CCCC3=O)c2)nn1)n1ccc(N2CCC[C@@H](NCC3CCC3)C2)cc1=O (single isomer, unassigned) [Compound 159] | ≤ 50 | 500 to 5000 | 500 to 5000 |
| COc1cncc(-c2cc(Cn3ccc(N4CCC[C@@H](NCC5CCC5)C4)cc3=O)n[nH]2)c1 [Compound 095, (R)-4-(3-((cyclobutylmethyl)amino)piperidin-1-yl)-1-((5-(5-methoxypyridin-3-yl)-1H-pyrazol-3-yl)methyl)pyridin-2(1H)-one] | ≤ 50 | ≤ 500 | 500 to 5000 |
| COc1cncc(-c2cn(C(C)n3ccc(N4CCC[C@@H](NCC5CCC5)C4)cc3=O)nn2)c1 (single isomer, unassigned) [Compound 055] | ≤ 50 | ≤ 500 | ≤ 500 |
| O=c1cc(-c2cn(Cc3ccc(N4CCC[C@@H](NCC5CCC5)C4)nn3)nn2)nc2ccccn12 [Compound 017, (R)-2-(1-((6-(3-((cyclobutylmethyl)amino)piperidin-1-yl)pyridazin-3-yl)methyl)-1H-1,2,3-triazol-4-yl)-4H-pyrido[1,2-a]pyrimidin-4-one] | ≤ 50 | > 5000 | > 5000 |
| O=C(Nc1cc(=O)n2ccccc2n1)C1(c2ccc(N3CCC[C@@H](NCC4CCC4)C3)nc2)COC1 [Compound 322, (R)-3-(6-(3-((cyclobutylmethyl)amino)piperidin-1-yl)pyridin-3-yl)-N-(4-oxo-4H-pyrido[1,2-a]pyrimidin-2-yl)oxetane-3-carboxamide] | ≤ 50 | 500 to 5000 | 500 to 5000 |
| COc1cncc(-c2nnc(Cn3ccc(N4CCC[C@@H](NCC5CCC5)C4)cc3=O)s2)c1 [Compound 077, (R)-4-(3-((cyclobutylmethyl)amino)piperidin-1-yl)-1-((5-(5-methoxypyridin-3-yl)-1,3,4-thiadiazol-2-yl)methyl)pyridin-2(1H)-one] | ≤ 50 | 500 to 5000 | 500 to 5000 |
| CC(c1ccc(N2CCC[C@@H](NCC3CCC3)C2)cn1)n1cc(-c2cncc(N(C)C)c2)nn1 (single isomer, unassigned) [Compound 143] | ≤ 50 | ≤ 500 | ≤ 500 |

Further lines, with some results ahead:

| IC50 [1] [nM] | Structure (SMILES) | IC50 [2] [nM] | IC50 [3] [nM] |
| --- | --- | --- | --- |
| ≤ 50 | O=C(NCc1ccc(N2CCC[C@@H](NCC3CCC3)C2)cn1)c1cc(=O)n2ccccc2n1 [Compound 060, (R)-N-((5-(3-((cyclobutylmethyl)amino)piperidin-1-yl)pyridin-2-yl)methyl)-4-oxo-4H-pyrido[1,2-a]pyrimidine-2-carboxamide] | > 5000 | > 5000 |
| ≤ 50 | c1ncc(C2CC2)cc1-c1cn(C2(c3ccc(N4CCC[C@@H](NCC5CC5)C4)cn3)CNC2)nn1 [Compound 349, (R)-N-(cyclopropylmethyl)-1-(6-(3-(4-(5-cyclopropylpyridin-3-yl)-1H-1,2,3-triazol-1-yl)azetidin-3-yl)pyridin-3-yl)piperidin-3-amine] | 500 to 5000 | > 5000 |
| ≤ 50 | FC(F)(F)C1(CN[C@@H]2CCCN(c3ccc(C4(n5cc(-c6cncc(C7CC7)c6)nn5)COC4)nc3)C2)CCC1 [Compound 339, (R)-1-(6-(3-(4-(5-cyclopropylpyridin-3-yl)-1H-1,2,3-triazol-1-yl)oxetan-3-yl)pyridin-3-yl)-N-((1-(trifluoromethyl)cyclobutyl)methyl)piperidin-3-amine] | ≤ 500 | 500 to 5000 |
| ≤ 50 | O=C(Nc1cc(=O)n2ccccc2n1)C1(c2ccc(N3CCC[C@@H](NCC4CC4)C3)cn2)COC1 [Compound 217, (R)-3-(5-(3-((cyclopropylmethyl)amino)piperidin-1-yl)pyridin-2-yl)-N-(4-oxo-4H-pyrido[1,2-a]pyrimidin-2-yl)oxetane-3-carboxamide] | ≤ 500 | ≤ 500 |
| ≤ 50 | CC(c1ccc(N2CCC[C@@H](NCC3CCC3)C2)cc1)n1cc(-c2cncc(N(C)C)c2)nn1 (stereo partly drawn) [Compound 189, 5-(1-(1-(4-((R)3-((cyclobutylmethyl)amino)piperidin-1-yl)phenyl)ethyl)-1H-1,2,3-triazol-4-yl)-N,N-dimethylpyridin-3-amine] | ≤ 500 | ≤ 500 |
| ≤ 50 | COc1cncc(-c2cn(C(C)c3ccc(N4CCC[C@@H](NCC5CCC5)C4)cn3)nn2)c1 (single isomer, unassigned) [Compound 073] | 500 to 5000 | 500 to 5000 |
| ≤ 50 | c1ncc(N2CCCC2)nc1-c1cn(C2(c3ccc(N4CCC[C@@H](NCC5CC5)C4)nn3)COC2)nn1 [Compound 213, (R)-N-(cyclopropylmethyl)-1-(6-(3-(4-(6-(pyrrolidin-1-yl)pyrazin-2-yl)-1H-1,2,3-triazol-1-yl)oxetan-3-yl)pyridazin-3-yl)piperidin-3-amine] | ≤ 500 | ≤ 500 |
